According to PMC11579541, “In vitro, in vivo, and in silico approaches for evaluating the preclinical DMPK profiles of ammoxetine, a novel chiral serotonin and norepinephrine reuptake inhibitor” (Frontiers in Pharmacology, 2024):

Experiments:
[1] = PPB assay by ultrafiltration, dog plasma; assay type: in vitro ADME, beagle dogs; conditions: beagle
Experimental: (§1) The PPB of ammoxetine was determined using the ultrafiltration method. Triplicate samples of rat, dog, or human plasma were spiked with ammoxetine at three final concentrations (50, 150, and 450 ng/mL). The spiked plasma samples were then incubated in a 37°C air-bath shaker for 1 h until equilibrium was reached. After incubation, 400 μL of the plasma samples were transferred to pre-saturated ultrafiltration devices. These devices were subsequently centrifuged at 13,800×g and 20°C for 20 min to separate the unbound ammoxetine. 100 μL of the test samples were taken and mixed with 100 μL of the IS, L-phencynonate (50 ng/mL), and 300 μL of methanol. Following centrifugation at 13,800×g for 10 min, the supernatants were used to determine the total and free concentrations of ammoxetine in the plasma (C t , C f ) using an LC-MS-MS method. The PPB rate (%) of ammoxetine was calculated by dividing (C t −C f ) by C t .

[2] = Configurational stability study (in vivo chiral inversion); set-up: species or system SD rats; conditions: rat plasma 2 h after 50 mg/kg oral, chiral HPLC
Experimental: Twelve SD rats were divided into three groups: a blank control group, an S-071031B group (50 mg/kg), and an R-071031B group (50 mg/kg). Prior to administration, the animals underwent a 12-h fasting period while having access to water. At 2 h post-dosing, the rats were anesthetized, and blood samples were collected from the abdominal aorta into heparinized tubes. Plasma samples were obtained by centrifuging the collected blood at 2,000×g for 10 min to remove blood cells. Subsequently, 1 mL of plasma sample was mixed with 100 μL of 0.1% sodium hydroxide solution and 4 mL of ether. After centrifugation at 2,000×g for 10 min, the upper organic phase within each group was combined, transferred to a new tube, and dried under a stream of nitrogen. The resulting residues were reconstituted with 100 μL of methanol for subsequent HPLC analysis.
A chiral chromatographic column was employed to separate the enantiomers, and the RT of X-071031B (racemic 071031B) and S-071031B (ammoxetine) standards were determined for identification. Plasma samples were collected from rats 2 h after oral administration of 50 mg/kg of S-071031B or R-071031B. The presence of a chromatographic peak at the RT corresponding to the opposite enantiomer following the administration of the S-isomer would indicate the conversion of the S-isomer to the R-isomer in rats. […]

[3] = PPB assay by ultrafiltration, human plasma; assay type: in vitro ADME, humans
Experimental: as §1

P-gp (MDR1) = experiment: Bidirectional permeability measurements in MDCK-MDR1 monolayers; assay type: in vitro ADME, canine; conditions: dog, MDCK-MDR1, read-out: ER [Papp(B→A)⁄Papp(A→B)]
Experimental: (§2) MDCK-MDR1 cells at passage 17 were cultured in DMEM supplemented with 10% FBS, 1% glutamine, 100 U/mL penicillin/streptomycin, 1% NEAA, and 1 mmol/L sodium pyruvate. The cells were incubated overnight at 37°C with 5% CO2 and a relative humidity of 90%. Once the cells reached approximately 80% confluence, they were treated with a 0.25% trypsin/EDTA solution to dissociate the cells. Subsequently, the cells were seeded at a density of 5 × 10^5 cells/cm^2 in Millicell-96 well plates (Millipore, Burlington, USA). Prior to conducting the experiments, the integrity of the cell monolayer was confirmed by measuring transepithelial electrical resistance (TEER) using a Millicell ERS® meter (Millipore, Burlington, USA). A TEER value greater than 400 Ω cm^2 was required to ensure the formation and preservation of tight junctions.
(§3) Cell monolayers were preincubated with HBSS for 15 min at 37°C. To measure the A→B (apical side to basolateral side of monolayer) transporter, 400 μL of ammoxetine solution was added to the A-side (donor chamber), and 1,200 μL of HBSS solution was added to the B-side (receiver chamber). The B→A transporter was evaluated by adding 1,200 μL of ammoxetine solution to the B-side (donor chamber) and 400 μL of HBSS solution to the A-side (receiver chamber). At 0 h, 50 μL of the solution was taken from the donor chamber, and aliquots of 50 μL were taken from the receiver chamber at 15, 30, 45, 60, 90, and 120-min time intervals. The collected aliquots were immediately replaced with equal volumes of fresh blank HBSS. Ammoxetine transport was studied at three concentrations: 0.2, 1, and 5 μg/mL, with each concentration evaluated in triplicate. […] Ammoxetine samples collected from the receiver chambers at different time points were mixed with 150 μL of acetonitrile/methanol (1:1, v/v) solution containing 50 ng/mL L-phencynonate (IS). The mixtures were then vortexed for 1 min and centrifuged for 10 min at 13,800×g. The supernatants were analyzed using an LC-MS-MS method.
(§4) The apparent permeability coefficient ( Papp , cm/s) values for ammoxetine were determined using Equation 1: Papp=dQ/dt/A×C0 (1)
(§5) Here, dQ/dt represents the amount of drug transported to the receiver chamber within a specific time period, A is the surface area of the cell monolayer (=0.33 cm^2), and C0 is the initial concentration of ammoxetine.
(§6) In general, the involvement of a P-gp-mediated efflux mechanism was indicated if the efflux ratio ( ER ) value exceeded 1.5 ([Langthaler et al., 2024]). […]

[4] = as above; assay type: in vitro ADME, canine; conditions: dog, MDCK-MDR1, 2 h
Experimental: as §2, §3, §4, §5, §6

MDCK-MDR1 cells = experiment: as above; assay type: in vitro ADME, canine; conditions: from ER and verapamil effect
Experimental: as §2, §3, §4, §5, §6

P-gp = experiment: as above; assay type: in vitro ADME, canine; conditions: dog, MDCK-MDR1, with verapamil 100 μmol/L, verapamil 100 μmol/L
Experimental: as §2, §3, §4, §5, §6

[5] = 50 ng/mL, read-out: Percentage of ammoxetine-protein binding rate (%) (converted)
[6] = 150 ng/mL, read-out: Percentage of ammoxetine-protein binding rate (%) (converted)
[7] = 450 ng/mL, read-out: Percentage of ammoxetine-protein binding rate (%) (converted)
[8] = approximate range over 50-450 ng/mL, read-out: PPB rate

- fraction unbound at 1 h, 50 ng/mL [1, 5]: 0.464
- fraction unbound at 1 h, 150 ng/mL [1, 6]: 0.468
- fraction unbound at 1 h, 450 ng/mL [1, 7]: 0.423
- fraction unbound at 1 h [1, 8]: 0.4 to 0.5
- chiral inversion in vivo [2]: does not undergo conversion to R-071031B
- fraction unbound at 1 h, 50 ng/mL [3, 5]: 0.415
- fraction unbound at 1 h, 150 ng/mL [3, 6]: 0.503
- fraction unbound at 1 h, 450 ng/mL [3, 7]: 0.45
- fraction unbound at 1 h [3, 8]: 0.4 to 0.5
- efflux ratio at 120 min, 0.2 μg/mL (P-gp (MDR1); 0.2 μg/mL): 1.67
- efflux ratio at 120 min, 1 μg/mL (P-gp (MDR1); 1 μg/mL): 1.74
- efflux ratio at 120 min, 5 μg/mL (P-gp (MDR1); 5 μg/mL): 1.9
- Papp A→B at 2 h, 0.2 μg/mL ([4]; 0.2 μg/mL): 15.8 ± 2.83 ×10⁻⁶ cm/s
- Papp B→A at 2 h, 0.2 μg/mL ([4]; 0.2 μg/mL): 26.5 ± 5.3 ×10⁻⁶ cm/s
- Papp A→B at 2 h, 1 μg/mL ([4]; 1 μg/mL): 6.61 ± 0.555 ×10⁻⁶ cm/s
- Papp B→A at 2 h, 1 μg/mL ([4]; 1 μg/mL): 11.5 ± 2.93 ×10⁻⁶ cm/s
- Papp A→B at 2 h, 5 μg/mL ([4]; 5 μg/mL): 13.2 ± 1.26 ×10⁻⁶ cm/s
- Papp B→A at 2 h, 5 μg/mL ([4]; 5 μg/mL): 25.2 ± 3.49 ×10⁻⁶ cm/s
- P-gp substrate status (MDCK-MDR1 cells): likely a substrate of P-gp
- Papp A→B at 120 min, 0.2 μg/mL (P-gp; 0.2 μg/mL): 27.2 ± 6.43 ×10⁻⁶ cm/s
- Papp A→B at 120 min, 1 μg/mL (P-gp; 1 μg/mL): 28.8 ± 1.89 ×10⁻⁶ cm/s
- Papp A→B at 120 min, 5 μg/mL (P-gp; 5 μg/mL): 29.9 ± 3.29 ×10⁻⁶ cm/s
SMILES: CNCC[C@H](Oc1cccc2c1OCO2)c1cccs1 [ammoxetine]
